Assay results from US6392083B1, “Process for producing salts of cyanobenzylamines” (Showa Denko K.K., priority 1999, dated 2002).

Tests used:
[1] = Bulk density measured with Powder-tester Type PT-N; type: physicochemical; conditions: dried salt powder; Powder-tester Type PT-N (Hosokawa Micron); hydrochloride
Description: The bulk density was measured with a Powder-tester Type PT-N (product of Hosokawa Micron).

[2] = From the text: These two compounds are difficult to separate through distillation due to the small difference between their respective boiling points.

bulk density [1]	Structure (SMILES)	water solubility [2]
0.2 g/mL	Cl.N#Cc1ccc(CN)cc1 [Comparative Example, p-Cyanobenzylamine hydrochloride, reference compound]	
0.3 g/mL	Cl.N#Cc1ccc(CN)cc1 [Example 1, p-cyanobenzylamine hydrochloride]	
0.5 g/mL	Cl.N#Cc1ccc(CN)cc1 [Example 7, p-cyanobenzylamine hydrochloride]	
	Cl.N#Cc1ccc(CN)cc1 [p-cyanobenzylamine hydrochloride]	much lower than that of p-xylylenediamine hydrochloride
